The text below walks through data of patent publication US9359308B2, “Pyrazine kinase inhibitors” (Portola Pharmaceuticals, Inc., priority 2011, dated 2016).

The structures appear in SMILES notation.

For this test, the target named is T1, full length active recombinant SYK enzyme (Homo sapiens, UniProt P43405).
T1 construct: full length active recombinant SYK enzyme (Millipore, Calif.); purchased Millipore
In words: Inhibition of Syk tyrosine phosphorylation activity (LANCE TR-FRET kinase assay). In kind it is biochemical. The conditions noted are these: activity in the Syk assays, class symbols. Put shortly:
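IC50 was derived by non-linear regression of TR-FRET signal (Eu-W1024-PY100 donor, streptavidin-APC acceptor) read 1 h after EDTA quench. The kinase step ran 1 h at room temperature with 1 nM full-length SYK, 550 nM biotinylated DEEDYESP substrate and 100 μM ATP in Tris pH 7.5/MgCl2/DTT at 3% final DMSO.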
For orientation: Time-resolved FRET reads energy transfer from a long-lived donor to a nearby acceptor.
On to `CC(C)[C@@H](Nc1cnc(C(N)=O)c(Nc2cc(F)c3ncccc3c2)n1)C(N)=O` [Example 206, (R)-5-(1-amino-3-methyl-1-oxobutan-2-ylamino)-3-(8-fluoroquinolin-6-ylamino)pyrazine-2-carboxamide], for which the IC50 (commonly the concentration at which inhibition is half-maximal) lay within 0.001 to 0.01 µM. For `CN1C(=O)COc2ccc(Nc3nc(N[C@@H]4CCCC[C@@H]4N)cnc3C(N)=O)cc21` [Example 207, 5-((1R,2S)-2-aminocyclohexylamino)-3-(4-methyl-3-oxo-3,4-dihydro-2H-benzo[b][1,4]oxazin-6-ylamino)pyrazine-2-carboxamide], the IC50 was 0.001 to 0.01 µM. As for `CC[C@@H](Nc1cnc(C(N)=O)c(Nc2cc(F)c3ncccc3c2)n1)C(N)=O` [Example 208, (R)-5-(1-amino-1-oxobutan-2-ylamino)-3-(8-fluoroquinolin-6-ylamino)pyrazine-2-carboxamide], the figure is 0.001 to 0.01 µM. As for `CC(C)[C@@H](Nc1cnc(C(N)=O)c(Nc2ccc(-c3ccccn3)cc2)n1)C(N)=O` [Example 209, (R)-5-(1-amino-3-methyl-1-oxobutan-2-ylamino)-3-(4-(pyridin-2-yl)phenylamino)pyrazine-2-carboxamide], the figure is 0.01 to 0.1 µM. As for `NC(=O)c1ncc(N[C@@H]2CCCC(F)(F)[C@@H]2N)nc1Nc1cc(F)c2ncccc2c1` [Example 210, 5-((1R,2R)-2-amino-3,3-difluorocyclohexylamino)-3-(8-fluoroquinolin-6-ylamino)pyrazine-2-carboxamide], the concentration for half-maximal inhibition (IC50) was in the range of 0.001 to 0.01 µM.

For the compound `CC[C@@H](Nc1cnc(C(N)=O)c(Nc2cnn(C)c2)n1)C(N)=O` [Example 211, (R)-5-(1-amino-1-oxobutan-2-ylamino)-3-(1-methyl-1H-pyrazol-4-ylamino)pyrazine-2-carboxamide], the half-inhibitory concentration (IC50) lay in the range of 0.1 to 1 µM. Regarding `Cc1cc(Nc2nc(N[C@@H](C(N)=O)C(C)C)cnc2C(N)=O)sn1` [Example 212, (R)-5-(1-amino-3-methyl-1-oxobutan-2-ylamino)-3-(3-methylisothiazol-5-ylamino)pyrazine-2-carboxamide], the IC50 fell in the range of 0.001 to 0.01 µM. As for `NC(=O)c1ncc(N[C@@H]2CCCC[C@@H]2N)nc1Nc1ccnnc1` [Example 213, 5-((1R,2S)-2-aminocyclohexylamino)-3-(pyridazin-4-ylamino)pyrazine-2-carboxamide], the figure is 0.01 to 0.1 µM; as for `Cc1cc(Nc2nc(N[C@@H](C(N)=O)C(C)(C)C)cnc2C(N)=O)sn1` [Example 214, (R)-5-(1-amino-3,3-dimethyl-1-oxobutan-2-ylamino)-3-(3-methylisothiazol-5-ylamino)pyrazine-2-carboxamide], 0.01 to 0.1 µM; as for `Cc1cc(Nc2nc(N[C@H](C)C(N)=O)cnc2C(N)=O)sn1` [Example 215, (R)-5-(1-amino-1-oxopropan-2-ylamino)-3-(3-methylisothiazol-5-ylamino)pyrazine-2-carboxamide], 0.01 to 0.1 µM. As for `CC(C)C[C@@H](Nc1cnc(C(N)=O)c(Nc2cncc(Cl)c2)n1)C(N)=O` [Example 216, (R)-5-(1-amino-4-methyl-1-oxopentan-2-ylamino)-3-(5-chloropyridin-3-ylamino)pyrazine-2-carboxamide], the figure is 0.001 to 0.01 µM. As for `NC(=O)c1ncc(N[C@@H]2CCCC[C@@H]2N)nc1Nc1cncc(Cl)c1` [Example 217, 5-((1R,2S)-2-aminocyclohexylamino)-3-(5-chloropyridin-3-ylamino)pyrazine-2-carboxamide], the figure is 0.001 to 0.01 µM. On to `CC[C@@H](Nc1cnc(C(N)=O)c(Nc2cnn(CC3CC3)c2)n1)C(N)=O` [Example 218, (R)-5-(1-amino-1-oxobutan-2-ylamino)-3-(1-(cyclopropylmethyl)-1H-pyrazol-4-ylamino)pyrazine-2-carboxamide], for which the IC50 lay in the range of 0.1 to 1 µM. As for `NC(=O)c1ncc(N[C@@H]2CCCC[C@@H]2N)nc1Nc1cnn(CC2CC2)c1` [Example 219, 5-((1R,2S)-2-aminocyclohexylamino)-3-(1-(cyclopropylmethyl)-1H-pyrazol-4-ylamino)pyrazine-2-carboxamide], the figure is 0.01 to 0.1 µM; as for `Cc1cc(Nc2nc(NC3(C(N)=O)CC3)cnc2C(N)=O)sn1` [Example 220, 5-(1-carbamoylcyclopropylamino)-3-(3-methylisothiazol-5-ylamino)pyrazine-2-carboxamide], 0.001 to 0.01 µM.

Regarding `CCc1cc(Nc2nc(N[C@H](CC)C(N)=O)cnc2C(N)=O)sn1` [Example 221, (R)-5-(1-amino-1-oxobutan-2-ylamino)-3-(3-ethylisothiazol-5-ylamino)pyrazine-2-carboxamide], the IC50 lay in the range of 0.001 to 0.01 µM. On to `CC(C)[C@@H](Nc1cnc(C(N)=O)c(Nc2cncc(Cl)c2)n1)C(N)=O` [Example 222, (R)-5-(1-amino-3-methyl-1-oxobutan-2-ylamino)-3-(5-chloropyridin-3-ylamino)pyrazine-2-carboxamide], for which the IC50 lay within 0.01 to 0.1 µM. As for `CC[C@@H](Nc1cnc(C(N)=O)c(Nc2cncc(Cl)c2)n1)C(N)=O` [Example 223, (R)-5-(1-amino-1-oxobutan-2-ylamino)-3-(5-chloropyridin-3-ylamino)pyrazine-2-carboxamide], the figure is 0.01 to 0.1 µM. As for `CCc1cc(Nc2nc(N[C@@H](C(N)=O)C(C)C)cnc2C(N)=O)sn1` [Example 224, (R)-5-(1-amino-3-methyl-1-oxobutan-2-ylamino)-3-(3-ethylisothiazol-5-ylamino)pyrazine-2-carboxamide], the figure is 0.001 to 0.01 µM; as for `CCc1cc(Nc2nc(N[C@H](CC3CC3)C(N)=O)cnc2C(N)=O)sn1` [Example 225, (R)-5-(1-amino-3-cyclopropyl-1-oxopropan-2-ylamino)-3-(3-ethylisothiazol-5-ylamino)pyrazine-2-carboxamide], 0.001 to 0.01 µM. As for `CCc1cc(Nc2nc(N[C@@H]3CCCC(F)(F)[C@@H]3N)cnc2C(N)=O)sn1` [Example 226, 5-((1R,2R)-2-amino-3,3-difluorocyclohexylamino)-3-(3-ethylisothiazol-5-ylamino)pyrazine-2-carboxamide], the figure is 0.01 to 0.1 µM; as for `NC(=O)c1ncc(N[C@@H]2CCCC(F)(F)[C@@H]2N)nc1Nc1cnc2cc(F)ccc2c1` [Example 227, 5-((1R,2R)-2-amino-3,3-difluorocyclohexylamino)-3-(7-fluoroquinolin-3-ylamino)pyrazine-2-carboxamide], 0.01 to 0.1 µM; as for `CC[C@@H](Nc1cnc(C(N)=O)c(Nc2cc(C(C)(C)C)ns2)n1)C(N)=O` [Example 228, (R)-5-(1-amino-1-oxobutan-2-ylamino)-3-(3-tert-butylisothiazol-5-ylamino)pyrazine-2-carboxamide], 0.01 to 0.1 µM. Take `CC(C)(C)c1cc(Nc2nc(N[C@H](CC3CC3)C(N)=O)cnc2C(N)=O)sn1` [Example 229, (R)-5-(1-amino-3-cyclopropyl-1-oxopropan-2-ylamino)-3-(3-tert-butylisothiazol-5-ylamino)pyrazine-2-carboxamide]: the IC50 fell in the range of 0.01 to 0.1 µM. As for `CN1C(=O)COc2ccc(Nc3nc(N[C@@H]4CCCC(F)(F)[C@@H]4N)cnc3C(N)=O)cc21` [Example 230, 5-((1R,2R)-2-amino-3,3-difluorocyclohexylamino)-3-(4-methyl-3-oxo-3,4-dihydro-2H-benzo[b][1,4]oxazin-6-ylamino)pyrazine-2-carboxamide], the figure is 0.01 to 0.1 µM; as for `NC(=O)c1ncc(N[C@@H]2CCCC[C@@H]2N)nc1Nc1cc(C2CC2)no1` [Example 231, 5-((1R,2S)-2-aminocyclohexylamino)-3-(3-cyclopropylisoxazol-5-ylamino)pyrazine-2-carboxamide], 0.01 to 0.1 µM; as for `CC[C@@H](Nc1cnc(C(N)=O)c(Nc2cnc3ccc(F)cc3c2)n1)C(N)=O` [Example 232, (R)-5-(1-amino-1-oxobutan-2-ylamino)-3-(6-fluoroquinolin-3-ylamino)pyrazine-2-carboxamide], 0.001 to 0.01 µM.

Turning to `CC[C@@H](Nc1cnc(C(N)=O)c(Nc2cnc3cc(F)ccc3c2)n1)C(N)=O` [Example 233, (R)-5-(1-amino-1-oxobutan-2-ylamino)-3-(7-fluoroquinolin-3-ylamino)pyrazine-2-carboxamide], the IC50 was 0.001 to 0.01 µM. Regarding `CC(C)(C)[C@@H](Nc1cnc(C(N)=O)c(Nc2cnc3ccc(F)cc3c2)n1)C(N)=O` [Example 234, (R)-5-(1-amino-3,3-dimethyl-1-oxobutan-2-ylamino)-3-(6-fluoroquinolin-3-ylamino)pyrazine-2-carboxamide], the IC50 was in the range of 0.001 to 0.01 µM. With `CC(C)(C)[C@@H](Nc1cnc(C(N)=O)c(Nc2ccc3cccnc3c2)n1)C(N)=O` [Example 235, (R)-5-(1-amino-3,3-dimethyl-1-oxobutan-2-ylamino)-3-(quinolin-7-ylamino)pyrazine-2-carboxamide], the IC50 was 0.01 to 0.1 µM. As for `CCc1cc(Nc2nc(N[C@@H](C(N)=O)C(C)(C)C)cnc2C(N)=O)sn1` [Example 236, (R)-5-(1-amino-3,3-dimethyl-1-oxobutan-2-ylamino)-3-(3-ethylisothiazol-5-ylamino)pyrazine-2-carboxamide], the figure is 0.01 to 0.1 µM; as for `CC(C)(C)[C@@H](Nc1cnc(C(N)=O)c(Nc2cnc3cccnc3c2)n1)C(N)=O` [Example 237, (R)-3-(1,5-naphthyridin-3-ylamino)-5-(1-amino-3,3-dimethyl-1-oxobutan-2-ylamino)pyrazine-2-carboxamide], 0.01 to 0.1 µM. As for `CC[C@@H](Nc1cnc(C(N)=O)c(Nc2cc(C3CC3)ns2)n1)C(N)=O` [Example 238, (R)-5-(1-amino-1-oxobutan-2-ylamino)-3-(3-cyclopropylisothiazol-5-ylamino)pyrazine-2-carboxamide], the figure is 0.001 to 0.01 µM; as for `C[C@@H](Nc1cnc(C(N)=O)c(Nc2cc(C3CC3)ns2)n1)C(N)=O` [Example 239, (R)-5-(1-amino-1-oxopropan-2-ylamino)-3-(3-cyclopropylisothiazol-5-ylamino)pyrazine-2-carboxamide], 0.001 to 0.01 µM.
